ChEMBL document CHEMBL1201861, “Genomics of Drug Sensitity in Cancer screening data, Wellcome Trust Sanger Institute”
pIC50: −log10 of the molar value.

Tests used:
Experiment in all cases: cells
KYSE-140 = type: functional, cell-based, Homo sapiens; conditions: Homo sapiens, KYSE-140
Description: SANGER: Inhibition of human KYSE-140 cell growth in a cell viability assay.

CFPAC-1 = type: functional, cell-based, Homo sapiens; conditions: Homo sapiens, CFPAC-1
Description: SANGER: Inhibition of human CFPAC-1 cell growth in a cell viability assay.

OE33 = type: functional, cell-based, Homo sapiens; conditions: Homo sapiens, OE33
Description: SANGER: Inhibition of human OE33 cell growth in a cell viability assay.

CAL-33 = type: functional, cell-based, Homo sapiens; conditions: Homo sapiens, CAL-33
Description: SANGER: Inhibition of human CAL-33 cell growth in a cell viability assay.

HGC-27 = type: functional, cell-based, Homo sapiens; conditions: Homo sapiens, HGC-27
Description: SANGER: Inhibition of human HGC-27 cell growth in a cell viability assay.

OE19 = type: functional, cell-based, Homo sapiens; conditions: Homo sapiens, OE19
Description: SANGER: Inhibition of human OE19 cell growth in a cell viability assay.

PC-3 = type: functional, cell-based, Homo sapiens; conditions: Homo sapiens, PC-3
Description: SANGER: Inhibition of human PC-3 cell growth in a cell viability assay.

HuCCT-1 = type: functional, cell-based, Homo sapiens, HuCCT1; conditions: Homo sapiens, HuCCT-1
Description: SANGER: Inhibition of human HuCCT1 cell growth in a cell viability assay.

NCI-H1651 = type: functional, cell-based, Homo sapiens; conditions: Homo sapiens, NCI-H1651
Description: SANGER: Inhibition of human NCI-H1651 cell growth in a cell viability assay.

OVCAR-8 = type: functional, cell-based, Homo sapiens; conditions: Homo sapiens, OVCAR-8
Description: SANGER: Inhibition of human OVCAR-8 cell growth in a cell viability assay.

A-427 = type: functional, cell-based, Homo sapiens; conditions: Homo sapiens, A-427
Description: SANGER: Inhibition of human A427 cell growth in a cell viability assay.

HN = type: functional, cell-based, Homo sapiens; conditions: Homo sapiens, HN
Description: SANGER: Inhibition of human HN cell growth in a cell viability assay.

SAS = type: functional, cell-based, Homo sapiens; conditions: Homo sapiens, SAS
Description: SANGER: Inhibition of human SAS cell growth in a cell viability assay.

769-P = type: functional, cell-based, Homo sapiens; conditions: Homo sapiens, 769-P
Description: SANGER: Inhibition of human 769-P cell growth in a cell viability assay.

HT-3 = type: functional, cell-based, Homo sapiens; conditions: Homo sapiens, HT-3
Description: SANGER: Inhibition of human HT-3 cell growth in a cell viability assay.

COLO-679 = type: functional, cell-based, Homo sapiens; conditions: Homo sapiens, COLO-679
Description: SANGER: Inhibition of human COLO-679 cell growth in a cell viability assay.

RPMI-7951 = type: functional, cell-based, Homo sapiens; conditions: Homo sapiens, RPMI-7951
Description: SANGER: Inhibition of human RPMI-7951 cell growth in a cell viability assay.

SW-620 = type: functional, cell-based, Homo sapiens; conditions: Homo sapiens, SW-620
Description: SANGER: Inhibition of human SW620 cell growth in a cell viability assay.

NCI-H810 = type: functional, cell-based, Homo sapiens; conditions: Homo sapiens, NCI-H810
Description: SANGER: Inhibition of human NCI-H810 cell growth in a cell viability assay.

SW1573 = type: functional, cell-based, Homo sapiens; conditions: Homo sapiens, SW1573
Description: SANGER: Inhibition of human SW1573 cell growth in a cell viability assay.

NCI-H292 = type: functional, cell-based, Homo sapiens; conditions: Homo sapiens, NCI-H292
Description: SANGER: Inhibition of human NCI-H292 cell growth in a cell viability assay.

CWR22R = type: functional, cell-based, Homo sapiens; conditions: Homo sapiens, 22Rv1
Description: SANGER: Inhibition of human 22RV1 cell growth in a cell viability assay.

COLO-678 = type: functional, cell-based, Homo sapiens; conditions: Homo sapiens, COLO-678
Description: SANGER: Inhibition of human COLO-678 cell growth in a cell viability assay.

NB14 = type: functional, cell-based, Homo sapiens; conditions: Homo sapiens, NB14
Description: SANGER: Inhibition of human NB14 cell growth in a cell viability assay.

KYSE-510 = type: functional, cell-based, Homo sapiens; conditions: Homo sapiens, KYSE-510
Description: SANGER: Inhibition of human KYSE-510 cell growth in a cell viability assay.

HCC1954 = type: functional, cell-based, Homo sapiens; conditions: Homo sapiens, HCC1954
Description: SANGER: Inhibition of human HCC1954 cell growth in a cell viability assay.

BXPC-3 = type: functional, cell-based, Homo sapiens; conditions: Homo sapiens, BXPC-3
Description: SANGER: Inhibition of human BxPC-3 cell growth in a cell viability assay.

HuP-T3 = type: functional, cell-based, Homo sapiens; conditions: Homo sapiens, HuP-T3
Description: SANGER: Inhibition of human HuP-T3 cell growth in a cell viability assay.

LoVo = type: functional, cell-based, Homo sapiens; conditions: Homo sapiens, LoVo
Description: SANGER: Inhibition of human LoVo cell growth in a cell viability assay.

SW837 = type: functional, cell-based, Homo sapiens; conditions: Homo sapiens, SW837
Description: SANGER: Inhibition of human SW837 cell growth in a cell viability assay.

## Cn1cnc2c(F)c(Nc3ccc(Br)cc3Cl)c(C(=O)NOCCO)cc21 [SELUMETINIB]
KYSE-140
  pIC50: < 5.40
CFPAC-1
  pIC50: < 5.40
OE33
  pIC50: < 5.40
CAL-33
  pIC50: 5.81
HGC-27
  pIC50: < 5.40
OE19
  pIC50: < 5.40
PC-3
  pIC50: < 5.40
HuCCT-1
  pIC50: 5.89
NCI-H1651
  pIC50: < 5.40
OVCAR-8
  pIC50: < 5.40
A-427
  pIC50: < 5.40
HN
  pIC50: 6.00
SAS
  pIC50: < 5.40
769-P
  pIC50: 5.43
HT-3
  pIC50: < 5.40
COLO-679
  pIC50: 6.47
RPMI-7951
  pIC50: < 5.40
SW-620
  pIC50: 6.52
NCI-H810
  pIC50: < 5.40
SW1573
  pIC50: < 5.40
NCI-H292
  pIC50: 5.95
CWR22R
  pIC50: < 5.40
COLO-678
  pIC50: 5.79
NB14
  pIC50: < 5.40
KYSE-510
  pIC50: < 5.40
HCC1954
  pIC50: < 5.40
BXPC-3
  pIC50: < 5.40
HuP-T3
  pIC50: < 5.40
LoVo
  pIC50: 5.97

## Cc1cn(-c2cc(NC(=O)c3ccc(C)c(Nc4nccc(-c5cccnc5)n4)c3)cc(C(F)(F)F)c2)cn1 [NILOTINIB]
KYSE-140
  pIC50: < 5.70
CFPAC-1
  pIC50: < 5.70
OE33
  pIC50: < 5.70
CAL-33
  pIC50: < 5.70
HGC-27
  pIC50: < 5.70
OE19
  pIC50: < 5.70
PC-3
  pIC50: < 5.70
HuCCT-1
  pIC50: < 5.70
NCI-H1651
  pIC50: < 5.70
OVCAR-8
  pIC50: < 5.70
A-427
  pIC50: < 5.70
HN
  pIC50: < 5.70
SAS
  pIC50: < 5.70
769-P
  pIC50: < 5.70
HT-3
  pIC50: < 5.70
COLO-679
  pIC50: < 5.70
RPMI-7951
  pIC50: < 5.70
SW-620
  pIC50: < 5.70
SW837
  pIC50: < 5.70
NCI-H810
  pIC50: < 5.70
SW1573
  pIC50: < 5.70
NCI-H292
  pIC50: < 5.70
CWR22R
  pIC50: < 5.70
COLO-678
  pIC50: < 5.70
NB14
  pIC50: < 5.70
KYSE-510
  pIC50: < 5.70
HCC1954
  pIC50: < 5.70
BXPC-3
  pIC50: < 5.70
HuP-T3
  pIC50: < 5.70
LoVo
  pIC50: < 5.70

## Nc1cccc2c1CN(C1CCC(=O)NC1=O)C2=O (centres undefined) [LENALIDOMIDE]
KYSE-140
  pIC50: < 5.30
CFPAC-1
  pIC50: < 5.30
OE33
  pIC50: < 5.30
CAL-33
  pIC50: < 5.30
HGC-27
  pIC50: < 5.30
OE19
  pIC50: < 5.30
PC-3
  pIC50: < 5.30
HuCCT-1
  pIC50: < 5.30
NCI-H1651
  pIC50: < 5.30
OVCAR-8
  pIC50: < 5.30
A-427
  pIC50: < 5.30
HN
  pIC50: < 5.30
SAS
  pIC50: < 5.30
769-P
  pIC50: < 5.30
HT-3
  pIC50: < 5.30
COLO-679
  pIC50: < 5.30
RPMI-7951
  pIC50: < 5.30
SW-620
  pIC50: < 5.30
SW837
  pIC50: < 5.30
NCI-H810
  pIC50: < 5.30
SW1573
  pIC50: < 5.30
NCI-H292
  pIC50: < 5.30
CWR22R
  pIC50: < 5.30
COLO-678
  pIC50: < 5.30
NB14
  pIC50: < 5.30
KYSE-510
  pIC50: < 5.30
HCC1954
  pIC50: < 5.30
BXPC-3
  pIC50: < 5.30
HuP-T3
  pIC50: < 5.30
LoVo
  pIC50: < 5.30
